Experimental findings from patent US8134015B2, “Compound inhibiting in vivo phosphorous transport and medicine containing the same” (Kyowa Hakko Kirin Co., Ltd., priority 2003, dated 2012) are described below.

Structures can show the parent of a compound that is named as a salt.

One experiment addresses T1, rat NaPi-2b (Rattus norvegicus, UniProt Q9JJ09).
T1 construct: expressed in transfected cells; host or cells: Xenopus oocytes injected with cRNA
T1 sequence (Q9JJ09 1-695): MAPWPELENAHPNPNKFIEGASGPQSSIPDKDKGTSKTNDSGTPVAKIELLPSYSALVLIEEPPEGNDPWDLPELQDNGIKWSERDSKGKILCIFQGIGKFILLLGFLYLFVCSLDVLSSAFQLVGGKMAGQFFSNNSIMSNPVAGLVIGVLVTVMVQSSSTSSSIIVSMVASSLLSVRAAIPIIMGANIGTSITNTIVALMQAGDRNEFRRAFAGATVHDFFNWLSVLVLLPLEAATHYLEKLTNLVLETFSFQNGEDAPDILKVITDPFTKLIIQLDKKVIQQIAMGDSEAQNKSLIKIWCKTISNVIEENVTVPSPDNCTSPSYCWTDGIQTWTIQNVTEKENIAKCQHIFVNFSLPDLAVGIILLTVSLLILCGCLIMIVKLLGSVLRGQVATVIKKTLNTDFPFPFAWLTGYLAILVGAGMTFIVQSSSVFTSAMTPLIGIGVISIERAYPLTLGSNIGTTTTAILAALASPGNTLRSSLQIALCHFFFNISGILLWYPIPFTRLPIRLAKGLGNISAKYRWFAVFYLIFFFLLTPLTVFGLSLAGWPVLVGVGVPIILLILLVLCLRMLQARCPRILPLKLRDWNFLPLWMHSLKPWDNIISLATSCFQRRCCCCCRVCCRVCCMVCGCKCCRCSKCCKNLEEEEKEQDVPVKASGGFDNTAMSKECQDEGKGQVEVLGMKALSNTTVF
Description: Sodium-dependent phosphate uptake of Xenopus oocytes which expressed NaPi-2b (32P). The note with it: Xenopus oocytes expressing rat NaPi-2b, 32P radioactive phosphorus; read-out: IC50 (phosphate uptake inhibitory activity). Type of experiment: cell-based. A digest of the protocol:
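Rat small-intestine NaPi-2b cRNA injected into Xenopus oocytes, expressed for 2 days. Sodium-dependent phosphate uptake measured with 32P; % inhibition at 300 and 100 μM taken from the same inhibition curve.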
In general, IC50 refers to the concentration that gives 50% inhibition. Turning to `Cc1csc(NC(=O)c2cccc(CSCCCO)c2)c1C(=O)N/N=C/c1cccc(F)c1` [Compound 560, N-[3-(3-Fluoro-benzylidene-hydrazinocarbonyl)-4-methyl-thiophen-2-yl]-3-(3-hydroxy-propylsulfanylmethyl)-benzamide], the 50% inhibitory concentration (IC50) turned out to be 1.09 µM. For `CCN(CC)CCN(C)Cc1cccc(C(=O)Nc2ccc(I)cc2C(=O)N/N=C/c2ccc(Cl)c(C(F)(F)F)c2)c1` [Compound 477, N-[2-(4-chloro-3-trifluoromethyl-benzylidene-hydrazinocarbonyl)-4-iodo-phenyl]-3-{[(2-diethylamino-ethyl)-methyl-amino]-methyl}-benzamide], the IC50 was less than 3 µM. The same measure, in the same setting: next, `O=C(Nc1ccc(Cl)cc1C(=O)N/N=C/c1ccc(Cl)c(C(F)(F)F)c1)c1cccc(CN2CCC(N3CCCCC3)CC2)c1` [Compound 373, 3-[1,4′]Bipiperidinyl-1′-ylmethyl-N-[4-chloro-2-(4-chloro-3-trifluoromethyl-benzylidene-hydrazinocarbonyl)-phenyl]-benzamide]: 1.68 µM. Same read-out and setting: next, `Cc1ccc(/C=N/NC(=O)c2cc(Cl)ccc2NC(=O)c2cccnc2)cc1C` [Compound 188, N-[4-Chloro-2-(3,4-dimethyl-benzylidene-hydrazinocarbonyl)-phenyl]-nicotinamide]: 19.4 µM. Still for that read-out and setting: next, `O=C(Nc1ccc(Br)cc1C(=O)N/N=C/c1ccc(Cl)c(C(F)(F)F)c1)c1cccs1` [Compound 162, Thiophene-2-carboxylic acid [4-bromo-2-(4-chloro-3-trifluoromethyl-benzylidene-hydrazinocarbonyl)-phenyl]-amide]: 3.11 µM. In the case of `O=C(Nc1ccc(Br)cc1C(=O)N/N=C/c1ccc(Cl)c(C(F)(F)F)c1)c1cccc(CS(=O)(=O)CCO)c1` [Compound 678, N-[4-Bromo-2-(4-chloro-3-trifluoromethyl-benzylidene-hydrazinocarbonyl)-phenyl]-3-(2-hydroxy-ethanesulfonylmethyl)-benzamide], the IC50 is less than 3 µM. As to `CC(O)CN(Cc1cccc(C(=O)Nc2ccc(F)cc2C(=O)Nc2ccc(F)cc2C(=O)N/N=C/c2cccc(F)c2)c1)CC(C)O` (stereo not drawn) [Compound 988, 2-(3-{[Bis-(2-hydroxy-propyl)-amino]-methyl}-benzoylamino)-5-fluoro-N-[4-fluoro-2-(3-fluoro-benzylidene-hydrazinocarbonyl)-phenyl]-benzamide], the IC50 is 3.88 µM. With `Cc1cccc(/C=N/NC(=O)c2ccccc2NC(=O)c2cccc(F)c2)c1` [Compound 83, 3-Fluoro-N-[2-(3-methyl-benzylidene-hydrazinocarbonyl)-phenyl]-benzamide], the IC50 amounted to 2.98 µM. Same read-out and setting: next, `COc1ccc(C(=O)Nc2ccccc2C(=O)N/N=C/c2cccc(F)c2)cc1OC` [Compound 15, N-[2-(3-Fluoro-benzylidene-hydrazinocarbonyl)-phenyl]-3,4-dimethoxy-benzamide]: 1.41 µM. In the case of `CCN(CC)CCN(C)Cc1cccc(C(=O)Nc2sc3c(c2C(=O)N/N=C/c2ccc(OC)cc2)CCCC3)c1` [Compound 614, 3-{[(2-Diethylamino-ethyl)-methyl-amino]-methyl}-N-[3-(4-methoxy-benzylidene-hydrazinocarbonyl)-4,5,6,7-tetrahydro-benzo-[b]thiophen-2-yl]-benzamide], the IC50 worked out at 3.29 µM.

As to `O=C(Nc1ccc(Cl)cc1C(=O)N/N=C/C=C/c1ccccc1)c1ccncc1` [Compound 349, N-[4-Chloro-2-(3-phenyl-allylidene-hydrazinocarbonyl)-phenyl]-isonicotinamide], the concentration for half-maximal inhibition (IC50) is 8.78 µM. The same measure, in the same setting: then `CCN(CC)CCN(CCN(CC)CC)Cc1cccc(C(=O)Nc2sc3c(c2C(=O)N/N=C/c2ccc(OC)cc2)CCCC3)c1` [Compound 856, 3-{[Bis-(2-diethylamino-ethyl)-amino]-methyl}-N-[3-(4-methoxy-benzylidene-hydrazinocarbonyl)-4,5,6,7-tetrahydro-benzo[b]thiophen-2-yl]-benzamide; hydrochloride], with 1.77 µM; and `COc1cccc(/C=N/NC(=O)c2cc(Br)ccc2NC(=O)c2ccc(CN3CCN(CCO)CC3)cc2)c1` [Compound 323, N-[4-Bromo-2-(3-methoxy-benzylidene-hydrazinocarbonyl)-phenyl]-4-[4-(2-hydroxy-ethyl)-piperazin-1-ylmethyl]-benzamide], with 4.69 µM. Still for that read-out and setting: then `CN1CCN(c2ccc(NC(=O)c3cccc(CSCCO)c3)c(C(=O)N/N=C/c3ccc(Cl)c(C(F)(F)F)c3)c2)CC1` [Compound 1072, N-[2-(4-Chloro-3-trifluoromethyl-benzylidene-hydrazinocarbonyl)-4-(4-methyl-piperazin-1-yl)-phenyl]-3-(2-hydroxy-ethylsulfanylmethyl)-benzamide], with 3.88 µM; and `Cc1ccc(/C=N/NC(=O)c2c(C)csc2NC(=O)c2cccc(CSCCCO)c2)cc1C` [Compound 557, N-[3-(3,4-Dimethyl-benzylidene-hydrazinocarbonyl)-4-methyl-thiophen-2-yl]-3-(3-hydroxy-propylsulfanylmethyl)-benzamide], with less than 0.3 µM; and `O=C(Nc1ccc(Br)cc1C(=O)N/N=C/c1ccc(F)cc1)c1ccc(CN2CCC(CCO)CC2)cc1` [Compound 743, N-[4-Bromo-2-(4-fluoro-benzylidene-hydrazinocarbonyl)-phenyl]-4-[4-(2-hydroxy-ethyl)-piperidin-1-ylmethyl]-benzamide], with 14.4 µM. Still for that read-out and setting: next, `Cc1ccc(/C=N/NC(=O)c2ccccc2NC(=O)c2cccnc2)cc1C` [Compound 133, N-[2-(3,4-Dimethyl-benzylidene-hydrazinocarbonyl)-phenyl]-nicotinamide]: 0.88 µM; `Cc1csc(NC(=O)c2cccc(CSCCCO)c2)c1C(=O)N/N=C/c1ccc(Cl)c(C(F)(F)F)c1` [Compound 561, N-[3-(4-Chloro-3-trifluoromethyl-benzylidene-hydrazinocarbonyl)-4-methyl-thiophen-2-yl]-3-(3-hydroxy-propylsulfanylmethyl)-benzamide]: 0.31 µM; `COc1ccc(C(=O)Nc2ccc(I)cc2C(=O)N/N=C/c2ccc(C)cc2)cc1OC` [Compound 207, N-[4-Iodo-2-(4-methyl-benzylidene-hydrazinocarbonyl)-phenyl]-3,4-dimethoxy-benzamide]: less than 1 µM.

`Cc1ccc(/C=N/NC(=O)c2cc(Br)ccc2NC(=O)c2cccnc2)cc1C` [Compound 176, N-[4-Bromo-2-(3,4-dimethyl-benzylidene-hydrazinocarbonyl)-phenyl]-nicotinamide]: the IC50 was 4.1 µM.

The experiment is the same for the next values; noted with them: phosphate uptake, oocytes expressing rat NaPi-2b; 300 μM, determined from inhibition curve.
What is called inhibition is the share of the control response that was lost under treatment. A higher inhibition goes with a strong effect. For `Cc1csc(C(=O)N/N=C/c2cccc(F)c2)c1NC(=O)c1cccc(CN2CCC(O)CC2)c1` [Compound 542, N-[2-(3-Fluoro-benzylidene-hydrazinocarbonyl)-4-methyl-thiophen-3-yl]-3-(4-hydroxy-piperidin-1-ylmethyl)-benzamide], the inhibition at 300 µM is 41.1%. In turn, `CCN(CC)CCN(C)Cc1cccc(C(=O)Nc2cc(OCCOC)c(OCCOC)cc2C(=O)N/N=C/c2ccc(Cl)c(C(F)(F)F)c2)c1` [Compound 1031, N-[2-(4-Chloro-3-trifluoromethyl-benzylidene-hydrazinocarbonyl)-4,5-bis-(2-methoxy-ethoxy)-phenyl]-3-{[(2-diethylamino-ethyl)-methyl-amino]-methyl}-benzamide] displayed an inhibition at 300 µM of 58.8%. The same measure, in the same setting: next, `COc1ccc(C(=O)Nc2ccccc2C(=O)N/N=C/c2ccc([N+](=O)[O-])cc2)cc1OC` [Compound 240, 3,4-Dimethoxy-N-[2-(4-nitro-benzylidene-hydrazinocarbonyl)-phenyl]-benzamide]: 37.9%.

Molecule `CC(O)CN(Cc1cccc(C(=O)Nc2cscc2C(=O)N/N=C/c2ccc(Cl)c(C(F)(F)F)c2)c1)CC(C)O` (stereo not drawn) [Compound 978, 3-{[Bis-(2-hydroxy-propyl)-amino]-methyl}-N-[4-(4-chloro-3-trifluoromethyl-benzylidene-hydrazinocarbonyl)-thiophen-3-yl]-benzamide] had an inhibition at 300 µM of 74.1%. On the same count and under the same terms, then `O=C(Nc1ccc(Cl)cc1C(=O)N/N=C/c1cccc(F)c1)c1cnc2ccccc2n1` [Compound 1004, Quinoxaline-2-carboxylic acid [4-chloro-2-(3-fluoro-benzylidene-hydrazinocarbonyl)-phenyl]-amide], with 34.2%. The same measure, in the same setting: then `Cc1ccc(CNNC(=O)c2ccccc2NC(=O)c2ccncc2)cc1` [Compound 545, N-{2-[N′-(4-Methyl-benzyl)-hydrazinocarbonyl]-phenyl}-isonicotinamide], with 88.8%; and `Cc1cccc(/C=N/NC(=O)c2cc(Br)ccc2NC(=O)c2ccc(CSc3cccc(F)c3)cc2)c1` [Compound 357, N-[4-Bromo-2-(3-methyl-benzylidene-hydrazinocarbonyl)-phenyl]-4-(3-fluoro-phenylsulfanylmethyl)-benzamide], with 65.8%.
